Measurements from PMC8145546, “Inhibition of Rice Serotonin N-Acetyltransferases by MG149 Decreased Melatonin Synthesis in Rice Seedlings” (Biomolecules, 2021).

Experiments:
[1] = target: T1, OsSNAT1 (rice recombinant SNAT1) (Oryza sativa, UniProt Q5KQI6); assay: HPLC-fluorescence of N-acetylserotonin formed; format: biochemical
T1 construct: N-terminal 83 residues deleted; E. coli, plasmid pET300-Δ83SNAT1; purified recombinant

[2] = target: T2, OsSNAT2 (rice recombinant SNAT2) (Oryza sativa, UniProt Q6Z1Y6); assay: HPLC-fluorescence of N-acetylserotonin formed; format: biochemical
T2 construct: N-terminal 34 residues deleted; purified recombinant
T2 sequence (Q6Z1Y6 35-200): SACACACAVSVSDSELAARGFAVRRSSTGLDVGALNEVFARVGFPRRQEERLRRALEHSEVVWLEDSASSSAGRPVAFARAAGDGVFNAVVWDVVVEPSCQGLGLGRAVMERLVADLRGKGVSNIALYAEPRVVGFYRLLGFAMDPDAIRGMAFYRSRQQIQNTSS

T1 sequence (Q5KQI6 84-254): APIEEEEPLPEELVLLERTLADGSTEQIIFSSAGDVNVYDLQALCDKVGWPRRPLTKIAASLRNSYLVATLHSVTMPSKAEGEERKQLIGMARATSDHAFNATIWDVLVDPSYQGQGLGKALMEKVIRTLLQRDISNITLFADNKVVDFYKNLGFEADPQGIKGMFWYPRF

inhibition at 50 µM [1]: 80%
inhibition at 100 µM [2]: 28%
SMILES: CCCCCCCc1ccc(CCc2cccc(O)c2C(=O)O)cc1 [MG149]
